# Patent US10538506B2, “Crystal form of a potassium-competitive acid blocker and preparation method thereof” (Jiangsu Hansoh Pharmaceutical Group Co., Ltd., priority 2014, dated 2020)
# Tests used:
# [1] = Hygroscopicity: weight gain due to moisture absorption; type: physicochemical
# Procedure: The samples were prepared according to the method of Example 1, and the following tests were carried out:
# (1) placing the sample at 25° C. and 75% humidity;
# (2) placing the sample at 25° C. and 92.5% humidity.
# The aforementioned two samples were taken and tested at different time points to investigate weight gain of the samples due to moisture absorption.
# [2] = Long-term stability testing, inspection items; type: physicochemical; details: for Appearance / Content (%) / HPLC identification / Moisture (%) / Particle size d (0.5) / Particle size d (0.9) / Related substance (%) Maximum unknown single impurity / Related substance (%) Total impurities: 30° C./65% humidity
# Procedure: The samples were prepared according to the method of Example 1, and then were placed under the long-term stability conditions (temperature: 30° C.±2° C.; humidity: 65%±5%) for six months.
smiles,measurement,setting,value
"CNCc1cc(-c2ccccc2F)n(S(=O)(=O)c2cccnc2)c1.O=C(O)/C=C/C(=O)O [Example 1, 1-[5-(2-fluorophenyl)-1-(pyridin-3-ylsulfonyl)-1H-pyrrol-3-yl]-N-methylmethanamine fumarate]",weight gain due to moisture absorption (%),"[1]; 25° C./RH 75%, 5 days",0.01%
same,weight gain due to moisture absorption (%),"[1]; 25° C./RH 75%, 10 days",0.13%
same,weight gain due to moisture absorption (%),"[1]; 25° C./RH 75%, 30 days",0.12%
same,weight gain due to moisture absorption (%),"[1]; 25° C./RH 92.5%, 5 days",0.17%
same,weight gain due to moisture absorption (%),"[1]; 25° C./RH 92.5%, 10 days",0.12%
same,weight gain due to moisture absorption (%),"[1]; 25° C./RH 92.5%, 30 days",0.19%
same,Appearance,[2]; 0 months,White powder
same,Content (%),[2]; 0 months,99.6%
same,HPLC identification,[2]; 0 months,Consistent
same,Moisture (%),[2]; 0 months,0.04%
same,Particle size d (0.5),[2]; 0 months,d (0.5) ≤15 μm
same,Particle size d (0.9),[2]; 0 months,d (0.9) ≤30 μm
same,Related substance (%) Maximum unknown single impurity,[2]; 0 months,0.03%
same,Related substance (%) Total impurities,[2]; 0 months,0.12%
same,Appearance,[2]; 3 months,White powder
same,Content (%),[2]; 3 months,100.0%
same,HPLC identification,[2]; 3 months,Consistent
same,Moisture (%),[2]; 3 months,0.08%
same,Particle size d (0.5),[2]; 3 months,d (0.5) ≤15 μm
same,Particle size d (0.9),[2]; 3 months,d (0.9) ≤30 μm
same,Related substance (%) Maximum unknown single impurity,[2]; 3 months,0.04%
same,Related substance (%) Total impurities,[2]; 3 months,0.13%
same,Appearance,[2]; 6 months,White powder
same,Content (%),[2]; 6 months,99.7%
same,HPLC identification,[2]; 6 months,Consistent
same,Moisture (%),[2]; 6 months,0.08%
same,Particle size d (0.5),[2]; 6 months,d (0.5) ≤15 μm
same,Particle size d (0.9),[2]; 6 months,d (0.9) ≤30 μm
same,Related substance (%) Maximum unknown single impurity,[2]; 6 months,0.03%
same,Related substance (%) Total impurities,[2]; 6 months,0.13%
same,Stability,"[2]; long-term storage conditions, 30° C.±2° C., humidity 65%±5%, six months, fumarate",good stability
